This is an account of results in patent publication US11866518B2, “Bicyclic peptide ligands specific for TSLP” (BicycleTx Limited, priority 2020, dated 2024).

Test [1] concerns the target T1, TSLP (Homo sapiens, UniProt Q969D9). The test is described as follows: Human peripheral blood mononuclear cell assay (TSLP-induced CCL17/TARC). Set-up: host or cells: added to human PBMCs from healthy donors. Type of test: cell-based. The settings on record: read-out: CCL17 % Inhibition @ 10 μM, […] TSLP. As to the method:
Human peripheral blood mononuclear cells (PMBCs) were obtained from heparinized whole blood (healthy donors) by density gradient centrifugation using Lymphoprep (StemCell Technologies, Vancouver, BC) according to the manufacturers instructions. The PBMCs were washed twice with PBS containing 2 mM EDTA and 2% fetal calf serum (FCS) and reconstituted in RPMI containing 10% FCS and 2% PenStrep at a final concentration of 3 million cells/mL. This cell suspension (100 μL) was aliquoted into the wells of a 96-well flat bottom tissue culture plate. 5 μL of bicycle peptide or vehicle (0.1% DMSO in complete medium) was then added and mixed with 5 μL of TSLPvehicle (complete medium). […] The plate was incubated for 30 minutes are rt. 10 μL of this mixture was added to cells and the plate was incubated for 24 hours in a 10% CO2, humidified incubator at 37° C. The plate was centrifuged at 300×g for 5 min and the collected supernatants frozen at −20° C. for subsequent CCL17/TARC analysis.
CCL17/TARC was determined by MSD (MesoScale Discovery, Maryland, USA) according to the manufacturer's instructions.

The target of test [2] is T1, TSLP. The test is described as follows: Human TSLP Surface Plasmon Resonance (SPR) binding assay. Set-up: The resulting construct spCD33-6×HN-TEV-hTSLP(29-159)-Avi; 6xHN tag with TEV site (N, cleaved yes); made in house; host or cells: Expi293F cells. The settings on record: biotinylated human TSLP immobilized on streptavidin chip; 20° C.; steady-state or kinetic 1:1 fit; read-out: hTSLP SPR Kd.

The structures appear in SMILES notation. *1 amine or outer side, *2 acyl side, *3 side chain or, on linkers, in order; H or OH if unused. Where a SMILES comes first, the peptide text is derived from it. Bridges are numbered along the chain shown (N, C = ends). TATA = O=C(CC[*:1])N1CN(C(=O)CC[*:2])CN(C(=O)CC[*:3])C1

T1 sequence (Q969D9 29-159): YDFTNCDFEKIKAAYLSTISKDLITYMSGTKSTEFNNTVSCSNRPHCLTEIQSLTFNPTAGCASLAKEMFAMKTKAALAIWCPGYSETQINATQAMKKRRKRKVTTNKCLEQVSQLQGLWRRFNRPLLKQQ

One may read the inhibition as the drop in the measured response relative to a control, in per cent. One may read the Kd as a measure of binding affinity in units of concentration. As to `CC(C)C[C@@H]1NC(=O)[C@H](Cc2c[nH]c3ccccc23)NC(=O)[C@H](C(C)C)NC(=O)[C@@H](NC(=O)[C@@H]2CCCN2C(=O)[C@@H]2CCCN2C(=O)[C@@H](N)CO)CSCCC(=O)N2CN3CN(C2)C(=O)CCSC[C@H](NC(=O)[C@H](CC(=O)O)NC(=O)[C@H](CC(=O)O)NC1=O)C(=O)N[C@@H](Cc1c[nH]c2ccccc12)C(=O)N[C@@H](CCCNC(=N)N)C(=O)NCC(=O)N[C@@H](Cc1ccccc1)C(=O)N[C@H](C(=O)N[C@@H](C)C(N)=O)CSCCC3=O` [Example 73, SPP-(SEQ ID NO: 54)-A] (H-SPPCVWLDDCWRGFCA-NH2; linker 4-10-15 via TATA; N-terminus and C-terminus assumed), the inhibition at 10 µM at TSLP [1] is -11%. For the same molecule, the Kd on TSLP [2] was 85 nM.

For the molecule `CC(=O)N[C@H]1CSCCC(=O)N2CN3CN(C2)C(=O)CCSC[C@H](NC(=O)[C@H](CC(=O)O)NC(=O)[C@H](CCC(=O)O)NC(=O)[C@H](CC(C)C)NC(=O)[C@H](Cc2c[nH]c4ccccc24)NC(=O)[C@H](CCC(N)=O)NC1=O)C(=O)N[C@@H](Cc1c[nH]c2ccccc12)C(=O)N[C@@H](CCCNC(=N)N)C(=O)NCC(=O)N[C@@H](Cc1cccc(C)c1)C(=O)N[C@H](C(N)=O)CSCCC3=O` [Example 74, Ac-(SEQ ID NO: 55)], on TSLP [1], the inhibition at 10 µM turned out to be 43%. Besides, the dissociation constant Kd at TSLP [2] turned out to be 91 nM.

With `CC(C)C[C@H](NC(=O)[C@H](Cc1c[nH]cn1)NC(=O)[C@@H]1CSCCC(=O)N2CN3CN(C2)C(=O)CCSC[C@H](NC(=O)[C@H](CC(=O)O)NC(=O)[C@H](CCC(=O)O)NC(=O)[C@H](CC(C)C)NC(=O)[C@H](Cc2c[nH]c4ccccc24)NC(=O)[C@H](Cc2c[nH]cn2)NC(=O)[C@@H](NC(=O)[C@H](C)N)CSCCC3=O)C(=O)N[C@@H](Cc2c[nH]c3ccccc23)C(=O)N[C@@H](CCCNC(=N)N)C(=O)NCC(=O)N[C@@H](Cc2ccccc2)C(=O)N1)C(=O)N[C@@H](CCC(=O)O)C(N)=O` [Example 75, A-(SEQ ID NO: 56)-HLE] (H-ACHWLEDCWRGFCHLE-NH2; linker 2-8-13 via TATA), at TSLP [1], the inhibition at 10 µM is -2%. Also, at TSLP [2], the Kd came to 92 nM.

Turning to `CC(C)C[C@@H]1NC(=O)[C@H](Cc2c[nH]c3ccccc23)NC(=O)[C@H](Cc2c[nH]c3ccccc23)NC(=O)[C@H](CO)NC(=O)[C@H](CO)NC(=O)[C@@H]2CSCCC(=O)N3CN(CN(C3)C(=O)CCSC[C@@H](C(=O)N[C@@H](C)C(N)=O)NC1=O)C(=O)CCSC[C@H](NC(=O)[C@H](C)N)C(=O)N[C@@H](CCCNC(=N)N)C(=O)N[C@@H](CC(=O)O)C(=O)N[C@@H](CC(C)C)C(=O)N[C@@H](CC(=O)O)C(=O)N1CCC[C@H]1C(=O)N[C@@H](Cc1c[nH]c3ccccc13)C(=O)N[C@@H]([C@@H](C)O)C(=O)N2` [Example 164, A-(SEQ ID NO: 122)-A], at TSLP [1], the inhibition at 10 µM came out at 0%. In addition, at TSLP [2], the dissociation constant Kd came to 98 nM.

Consider `CC(C)C[C@@H]1NC(=O)[C@H](Cc2c[nH]c3ccccc23)NC(=O)[C@H](Cc2c[nH]c3ccccc23)NC(=O)[C@H](CC(N)=O)NC(=O)[C@@H]2CCCN2C(=O)[C@@H]2CSCCC(=O)N3CN(CN(C3)C(=O)CCSC[C@H](NC(=O)[C@@H]3CCCN3C(=O)[C@H](Cc3c[nH]cn3)NC(=O)[C@H](C)N)C(=O)N[C@@H](C)C(=O)N[C@@H](CC(=O)O)C(=O)N[C@@H](CC(C)C)C(=O)N[C@@H](CC(=O)O)C(=O)N3CCC[C@H]3C(=O)N[C@@H](Cc3c[nH]c4ccccc34)C(=O)N[C@@H]([C@@H](C)O)C(=O)N2)C(=O)CCSC[C@@H](C(=O)N[C@@H](C)C(N)=O)NC1=O` [Example 165, AHP-(SEQ ID NO: 123)-A] (H-AHPCADLDPWTCPNWWLCA-NH2; linker 4-12-18 via TATA; N-terminus and C-terminus assumed), for which, on TSLP [1], the inhibition at 10 µM worked out at 33%. Besides, at TSLP [2], the Kd worked out at 30 nM.

For `CC(C)C[C@@H]1NC(=O)[C@H](Cc2c[nH]c3ccccc23)NC(=O)[C@H](Cc2c[nH]c3ccccc23)NC(=O)[C@H](CO)NC(=O)[C@H](CO)NC(=O)[C@@H]2CSCCC(=O)N3CN(CN(C3)C(=O)CCSC[C@H](NC(=O)[C@@H](NC(=O)[C@H](CCC(N)=O)NC(=O)[C@@H](NC(=O)[C@@H](NC(=O)[C@H](C)NC(=O)[C@@H](N)Cc3ccc(O)cc3)[C@@H](C)O)[C@@H](C)O)C(C)C)C(=O)N[C@@H](CCCNC(=N)N)C(=O)N[C@@H](CC(=O)O)C(=O)N[C@@H](CC(C)C)C(=O)N[C@@H](CC(=O)O)C(=O)N3CCC[C@H]3C(=O)N[C@@H](Cc3c[nH]c4ccccc34)C(=O)N[C@@H]([C@@H](C)O)C(=O)N2)C(=O)CCSC[C@@H](C(=O)N[C@@H](C)C(N)=O)NC1=O` [Example 171, YATTQV-(SEQ ID NO: 122)-A], the inhibition at 10 µM at TSLP [1] is 36%. Moreover, at TSLP [2], the Kd amounted to 48 nM.

Consider `CC(C)C[C@@H]1NC(=O)[C@H](Cc2c[nH]c3ccccc23)NC(=O)[C@H](Cc2c[nH]c3ccccc23)NC(=O)[C@H](CC(=O)O)NC(=O)[C@H](CO)NC(=O)[C@@H]2CSCCC(=O)N3CN(CN(C3)C(=O)CCSC[C@H](NC(=O)[C@@H]3CCCN3C(=O)[C@H](C)NC(=O)[C@@H](N)CCCNC(=N)N)C(=O)N3CCC[C@H]3C(=O)N[C@@H](CC(=O)O)C(=O)N[C@@H](CC(C)C)C(=O)N[C@@H](CC(=O)O)C(=O)N3CCC[C@H]3C(=O)N[C@@H](Cc3c[nH]c4ccccc34)C(=O)N[C@@H]([C@@H](C)O)C(=O)N2)C(=O)CCSC[C@@H](C(=O)N[C@@H](C)C(N)=O)NC1=O` [Example 187, RAP-(SEQ ID NO: 136)-A] (H-RAPCPDLDPWTCSDWWLCA-NH2; linker 4-12-18 via TATA; N-terminus and C-terminus assumed), for which the inhibition at 10 µM on TSLP [1] is 11%. Moreover, the Kd at TSLP [2] turned out to be 86 nM.

Regarding `CC(C)C[C@@H]1NC(=O)[C@H](Cc2c[nH]c3ccccc23)NC(=O)[C@H](Cc2c[nH]c3ccccc23)NC(=O)[C@H](CO)NC(=O)[C@H](CC(=O)O)NC(=O)[C@@H]2CSCCC(=O)N3CN(CN(C3)C(=O)CCSC[C@H](NC(=O)[C@@H](NC(=O)[C@H](Cc3c[nH]cn3)NC(=O)[C@@H](N)CO)C(C)C)C(=O)N[C@@H](CCCNC(=N)N)C(=O)N[C@@H](CC(=O)O)C(=O)N[C@@H](CC(C)C)C(=O)N[C@@H](CC(=O)O)C(=O)N3CCC[C@H]3C(=O)N[C@@H](Cc3c[nH]c4ccccc34)C(=O)N[C@@H]([C@@H](C)O)C(=O)N2)C(=O)CCSC[C@@H](C(=O)N[C@@H](C)C(N)=O)NC1=O` [Example 188, SHV-(SEQ ID NO: 137)-A] (H-SHVCRDLDPWTCDSWWLCA-NH2; linker 4-12-18 via TATA; N-terminus and C-terminus assumed), the inhibition at 10 µM on TSLP [1] is -4%. Further, the dissociation constant (Kd) on TSLP [2] is 72 nM.

As to `CC(C)C[C@H](NC(=O)CNC(=O)[C@H](CC(=O)O)NC(=O)[C@H](C)NC(=O)[C@@H]1CSCCC(=O)N2CN3CN(C2)C(=O)CCSC[C@H](NC(=O)[C@H]([C@@H](C)O)NC(=O)[C@H](Cc2c[nH]c4ccccc24)NC(=O)[C@@H]2CCCN2C(=O)[C@H](CC(=O)O)NC(=O)[C@H](CC(C)C)NC(=O)[C@H](CC(=O)O)NC(=O)[C@H](CCCNC(=N)N)NC(=O)[C@@H](NC(=O)[C@H](C)N)CSCCC3=O)C(=O)N[C@@H](CO)C(=O)N[C@@H](CO)C(=O)N[C@@H](Cc2c[nH]c3ccccc23)C(=O)N[C@@H](Cc2c[nH]c3ccccc23)C(=O)N[C@@H](CC(C)C)C(=O)N1)C(=O)N[C@@H](Cc1ccc(O)cc1)C(=O)N[C@@H](CC(=O)O)C(=O)N[C@@H](C)C(N)=O` [Example 193, A-(SEQ ID NO: 122)-ADGLYDA], the inhibition at 10 µM at TSLP [1] stood at 47%. Besides, at TSLP [2], the Kd turned out to be 50 nM.
